Key:
[1] = tested on: human CD4+ CD25+ CD127low natural Treg (nTreg); assay: Flow cytometry of expanded nTreg treated with PIM1 inhibitor; format: cell-based; conditions: 100 nM
Procedure: After removal of Beads, DMSO or PIM1 inhibitor (100 nM) was added and treated for 24 h, followed by APC-FOXP3 and PE-CD25 antibody staining for flow cytometry analysis.
After human CD4+ CD25+ CD127^low natural Treg (nTreg) were sorted by BD FACS Aria II flow sorter, and expanded through Bead-CD3/CD28 and IL-2 (500 U/ml). DMSO or PIM1 inhibitor (4-[3-(4-chlorophenyl)-2,1-benzisoxazol-5-yl]-2-pyrimidinamine, 100 nM) was added and treated for 24 h. and the cells were stained with APC-FOXP3 and PE-CD25 antibody for flow cytometry analysis (results shown in FIG. 5A). The expanded nTreg were rested for 24 h. DMSO or PIM1 inhibitor (100 nM) was then added and treated for 48 h, followed by staining with APC-FOXP3 and PE-CD25 antibody for flow cytometry analysis (results shown in FIG. 5B).

[2] = tested on: nTreg cells; assay: nTreg expansion, FACS detection of FOXP3 and CTLA4; format: cell-based, human; conditions: 100 nM; IL-2 500 U/ml, CD3/CD28 dynabeads 3:1; two weeks; vs control group
Procedure: 500 U/ml of IL-2 was added to 2×10^5 nTreg cells. nTreg cells were expanded using CD3/CD28 T cell dynabeads and cells at 3:1 ratio. After two weeks, part of expanded nTreg cells were collected for FACS detection. Dynabeads were removed from the remaining cells. After 48 h of rest, FOXP3 and CTLA4 cells were collected again by flow cytometry. The working concentrations of Rapamycin and PIM1 inhibitors are both 100 nM.
500 U/ml of IL-2 was added to 2×10^5 nTreg cells. nTreg cells were expanded at a 3:1 ratio of CD3/CD28 T cell dynabeads and cells. After two weeks, part of the expanded nTreg cells were collected for FACS detection. Dynabeads were removed from the remaining cells and rested for 48 h. Cells were collected again for FACS detection of FOXP3 and CTLA4.

[3] = tested on: nTreg mixed with CFSE-labeled human PBMC; assay: nTreg immunosuppressive activity: proliferation of CFSE-labeled PBMC; format: cell-based; conditions: Treg:PBMC 1:2 or 1:4; Bead-CD3/CD28; 5 days; vs DMSO-treated group
Procedure: The expanded nTreg were mixed with human CFSE-labeled PBMC (2×10^5 cells/well) in U-shaped wells of 96-well plate at corresponding proportion. 5000 T cell dynabeads conjugated with CD3/CD28 antibody were added. Cell proliferation levels were detected after two groups of cells treated with DMSO and PIM1 inhibitors, respectively, were incubated for five days.
Regulatory T cells were obtained from human peripheral blood mononuclear cells (purchased from Shanghai Blood Center) by antibody labeling and magnetic bead sorting. As mentioned above, after labeling effector T cells with 1 μM CFSE (Invitrogen), regulatory T cells and effector T cells were cultured for 80 h. Flow cytometry was used to detect fluorescence intensity changes in effector T cells, their proliferation status was analyzed.
The expanded nTreg were mixed with CFSE-labeled human PBMC (2×10^5 cells/well) at the corresponding ratio (i.e., PBMC only, Treg:PBMC=1:2 or 1:4, or Treg only) in 96-well U-shaped well. 5000 Bead-CD3/CD28 were added to each well. Two groups of cells were treated, respectively, with DMSO and PIM1 inhibitors, cultured for 5 days, followed by detection of cell proliferation levels (results shown in FIG. 6).

[4] = tested on: Jurkat cells stably expressing HA-FOXP3; assay: FOXP3 protein degradation induced by PMA/LPS in Jurkat cells stably expressing HA-FOXP3 (immunoblot); format: cell-based; conditions: PMA 25 ng/ml + LPS 1 ng/ml, 24 h; kaempferol 50 μM, PIM1 inhibitor 100 nM, PI3K inhibitor 10 μg/ml; DMSO control
Procedure: HA-FOXP3-Jurkat stable expression cells were treated with PMA (25 ng/ml) and LPS (1 ng/ml). 50 μM kaempferol, 100 nM PIM1 inhibitors (specifically of 4-[3-(4-chlorophenyl)-2,1-benzisoxazol-5-yl]-2-pyrimidinamine), and 10 μg/ml PI3K inhibitor (LY294002) were added, and DMSO as a control. Cells were collected 24 h later. The levels of FOXP3 and GAPDH were detected directly by immunoblot.
Human embryonic kidney cell line HEK293 was co-transfected with FUGW-HA-FOXP3, del 8.9 and VSV-G. Cell culture supernatants were collected 48 h and 72 h after transfection. Viruses were purified by ultracentrifugation and used to infect Jurkat E6.1 to ultimately obtain Jurkat cell lines stably expressing HA-FOXP3.
Protein samples were subjected to SDS-PAGE, and then transferred to nitrocellulose membrane, which was then sealed in TBST containing 5% nonfat dry milk or 3% bovine serum albumin for 1 h. Primary antibody was added and incubated for 1 h and then HRP-conjugated secondary antibody was added and incubated for 1 h, and results shown by exposure with ECL substrates.
Jurkat cells stably expressing HA-FOXP3 were treated with PMA (25 ng/ml) and LPS (1 ng/ml). Each sample was added 50 μM kaempferol, 100 nM PIM1 inhibitor (i.e., 4-[3-(4-chlorophenyl)-2,1-benzisoxazol-5-yl]-2-pyrimidinamine), and 10 μg/ml PI3K inhibitor (LY294002). DMSO serves as a control. Cells were collected after 24 h.

[5] = target: T1, PIM1 (Homo sapiens, UniProt P11309); assay: PIM shRNA lentivirus in primary nTreg, mRNA by quantitative PCR; format: cell-based; design: SZ4.03 cells that highly expresses FOXP3 were infected with viral vectors carrying the negative control shRNA (shCK) and PIM1 shRNA (shPIM1); endogenous in cells; conditions: primary nTreg cells; 1 week culture after lentivirus infection
T1 sequence (P11309 whole entry): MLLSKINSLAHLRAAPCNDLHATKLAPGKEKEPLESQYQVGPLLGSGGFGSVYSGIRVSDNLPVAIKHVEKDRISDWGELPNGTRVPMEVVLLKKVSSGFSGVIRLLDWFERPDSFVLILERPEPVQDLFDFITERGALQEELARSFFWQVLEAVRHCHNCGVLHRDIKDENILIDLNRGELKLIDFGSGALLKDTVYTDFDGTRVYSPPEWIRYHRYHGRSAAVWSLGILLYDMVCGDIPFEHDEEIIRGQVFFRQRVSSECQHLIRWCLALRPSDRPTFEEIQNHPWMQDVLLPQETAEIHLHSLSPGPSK
Procedure: Primary nTreg cells were activated with 500 U/ml of IL-2 and CD3/CD28 T cell dynabeads and cells at 3:1 ratio for 4 h, and, respectively, infected with lentivirus encoding PIM1, PIM2, and PIM3 shRNA overnight. Continued incubation for one week, the mRNA levels of FOXP3 and its target gene CTLA4 were detected by quantitative PCR.
500 U/ml of IL-2 was added to 2×10^5 nTreg cells. Primary nTreg cells were activated at a 3:1 ratio of CD3/CD28 T cell dynabeads and cells for 4 h, followed by infection of lentiviruses encoding PIM1, PIM2, and PIM3 shRNA overnight. Cells were cultured for 1 week without removing dynabeads, and then the mRNAs level of FOXP3 and its target gene CTLA4 were detected (results shown in FIG. 12).
(§1) shPIM1 primer sequences were designed as follows:
After annealing, the synthesized shRNA primer sequences were ligated into shRNA lentiviral expression vector pLKO.1 (purchased from Addgene). After mixed at a ratio of pLKO.1:dR8.9:VSVG=5:4:3, they were transfected into HEK 293T cells by calcium phosphate method. Viruses were collected 48 h after transfection. Virus suspensions, after low-speed centrifugation and filtration, were used directly to infect target cells.

[6] = target: T1, PIM1; assay: shPIM1 knockdown in SZ4.03 cells, mRNA of FOXP3 target genes by quantitative PCR; format: cell-based; design: SZ4.03 cells that highly expresses FOXP3 were infected with viral vectors carrying the negative control shRNA (shCK) and PIM1 shRNA (shPIM1); endogenous in cells; host or cells: SZ4.03 lymphocyte cell line; conditions: vs control shCK
Procedure: After 4 h, total RNA was extracted and converted to cDNA. PIM1 mRNA expression levels were then analyzed by quantitative PCR.
as §1
After annealing, the synthesized shRNA primer sequences were ligated into lentiviral shRNA expression vector pLKO.1 (purchased from Addgene). After mixed at a ratio of pLKO.1:dR8.9:VSVG=5:4:3, HEK 293T cells were transfected with the mixture using calcium phosphate method. Viruses were collected 48 h after transfection. After low-speed centrifugation and filtration, virus suspension was used directly to infect target cells.
SZ4.03 cells that highly expresses FOXP3 were infected with viral vectors carrying the negative control shRNA (shCK) and PIM1 shRNA (shPIM1) packaged using lentiviral packaging system, followed by puromycin (50 ng/ml) selection and DMSO or PMA/inomycin (P/I) for 4 h. Total RNA was extracted and reverse transcribed to cDNA.

[7] = 24 h or 48 h, vs DMSO control group

Molecule: Nc1nccc(-c2ccc3noc(-c4ccc(Cl)cc4)c3c2)n1 [PIM1 inhibitor, 4-[3-(4-chlorophenyl)-2,1-benzisoxazol-5-yl]-2-pyrimidinamine]
- FOXP3 expression levels [1]: positively regulate
- CD25+ FOXP3+ Treg cell levels [1, 7]: significantly increase
- CLTA4+ FOXP3+ Treg cell levels [1, 7]: significantly increase
- FOXP3+ and CTLA4+ nTreg cell expansion [2]: promote
- PBMC proliferation [3]: inhibited more
- FOXP3 protein degradation [4]: can inhibit

B1: shPIM1: PIM1 shRNA (SEQ ID NO: 3 and 4) in lentiviral vector pLKO.1 (nucleic acid)
sense: CCGGGATACTCTCTTCTTCTCATAGCTCGAGCTATGAGAAGAAGAGAGTATCTTTTT
antisense: AATTAAAAAGATACTCTCTTCTTCTCATAGCTCGAGCTATGAGAAGAAGAGAGTATC
- mRNA levels of CTLA4 [5]: increase
- mRNA expression levels of FOXP3-negatively regulated target gene IL-2 [6]: reduces
- mRNA expression levels of FOXP3-positively regulated target gene CTLA4 [6]: enhances
- mRNA expression levels of FOXP3-positively regulated target gene GITR [6]: enhances
- mRNA expression levels of non-FOXP3 target gene STUB1 [6]: does not affect
- mRNA expression levels of PIM1 ([6]; DMSO or PMA/inomycin 4 h): significantly reduce

Reference: US20170189496A1, “USE OF PHOSPHORYLATION PATHWAY-RELATED FACTOR IN REGULATING FUNCTION OF REGULATORY T CELL” (Institut Pasteur of Shanghai, Chinese Academy of Sciences, priority 2012, published 2017)
